Reference: article PMC8302598, “Rapid discovery of self-assembling peptides with one-bead one-compound peptide library” (Nature Communications, 2021)

Assay: Appearance and TEM of 30 mM peptide in water
Type: physicochemical
Details: for Nanostructure under TEM: 30 mM in H2O; for Appearance of peptide in water: 30 mM in water, sonicated 3 min
Procedure: To further characterize these self-assembling peptides, we selected two positive peptides (FFVDF and YFTEF) and a negative control peptide (PFTTR) for the following studies: Fourier transform infrared (FT-IR) spectroscopy, UV−Vis spectra, and transmission electron microscopy (TEM).
Pentapeptides monomers were dissolved in DMSO at a concentration of 5.0 mM, followed by quick injection into water at a volume ratio of 1:99 for DMSO and H2O to obtain the nanomaterials solution (50 μM). For 30 mM pentapeptide solution, the pentapeptide was dissolved in water and sonicated for 3 min.
The pentapeptide solution with the concentration of 20 μM (10 μL) was placed dropwise onto a copper mesh for 5 min, then most of the liquid was removed through a filter paper. Ten microliters of uranyl acetate solution were employed to stain the samples for 5 min, followed by drying the spare liquid with the filter. Finally, the copper mesh was washed with 10 μL of deionized water, which was blotted after staining and drying at room temperature. All of the samples were observed by TEM (Tecnai G2 20 S-TWIN) at an accelerating voltage of 200 kV.

| Nanostructure under TEM | Appearance of peptide in water | Substance |
| --- | --- | --- |
| entangled fibrous network | milky white solution | FFVDF [self-assembling pentapeptide identified from OBOC library, forms nanofibers] |
| entangled fibrous network | milky hydrogel | YFTEF [self-assembling pentapeptide identified from OBOC library] |
